Tested on: HDAC
Experiment: Fluor de Lys fluorometric assay of HDAC activity in PC3 cells
Type: cell-based, human
Conditions: 24 h
Procedure: Briefly 20×10^3 cells/well were seeded in 96 well plates and incubated for 24 h with (a) 1 mM BLT (b) FSAHA at 2, 5, 10 μM (c) SAHA at 2, 5, 10 μM (d) FSAHA at 2, 5, 7, 8, 9, 10 μM in the presence of 1 mM BLT (e) FSAHA at 2, 5, 7, 8, 9, 10 μM in the presence of vehicle (DMSO). The Fluor de Lys substrate was then added for 1 h, medium removed, cells rinsed with PBS and incubated for 10 minutes with the Fluor-de-Lys developer, and fluorescence read at 460 nm using the Tecan microplate reader as above. Results were normalized to cell density as determined using the WST-1 assay in the same 96 well plate.

## O=C(CCCCCCC(=O)Nc1ccccc1)NO [SAHA, suberoylanilide hydroxamic acid, reference compound]
2 μM
  HDAC activity (relative to controls): 84±10%
5 μM
  HDAC activity (relative to controls): 51±3%
10 μM
  HDAC activity (relative to controls): 29±3%
